Measurements reported in PMC3481288 (The Journal of Biological Chemistry, 2012).

Target: T1, PBP2ALGA (Staphylococcus aureus, UniProt F4NA57)
T1 sequence (F4NA57 23-665 limits assumed): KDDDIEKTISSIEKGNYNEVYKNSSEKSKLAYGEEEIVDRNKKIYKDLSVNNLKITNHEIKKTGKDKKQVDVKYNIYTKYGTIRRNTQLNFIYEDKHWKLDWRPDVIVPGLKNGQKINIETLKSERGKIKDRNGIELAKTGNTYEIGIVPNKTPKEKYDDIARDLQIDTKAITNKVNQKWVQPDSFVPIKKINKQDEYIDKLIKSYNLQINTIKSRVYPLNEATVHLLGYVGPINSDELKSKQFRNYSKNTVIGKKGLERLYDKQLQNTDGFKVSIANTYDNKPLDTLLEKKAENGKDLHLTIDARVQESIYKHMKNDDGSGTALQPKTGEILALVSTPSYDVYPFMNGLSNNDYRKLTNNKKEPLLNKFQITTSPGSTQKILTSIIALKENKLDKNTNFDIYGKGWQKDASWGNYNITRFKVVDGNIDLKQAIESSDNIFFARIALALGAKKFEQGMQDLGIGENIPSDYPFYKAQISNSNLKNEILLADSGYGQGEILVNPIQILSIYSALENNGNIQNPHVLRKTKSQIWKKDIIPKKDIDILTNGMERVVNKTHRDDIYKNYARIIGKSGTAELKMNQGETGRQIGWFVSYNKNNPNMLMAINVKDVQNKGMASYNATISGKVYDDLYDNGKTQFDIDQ
Experiment: Bocillin FL competition, SDS-PAGE fluorescence
Format: binding

CO[C@@]1(NC(=O)Cc2cccs2)C(=O)N2C(C(=O)O)=C(COC(N)=O)CS[C@@H]21 [cefoxitin]
IC50: 501 µM

Cc1onc(-c2ccccc2)c1C(=O)N[C@@H]1C(=O)N2[C@@H]1SC(C)(C)[C@@H]2C(=O)O [oxacillin]
IC50: 212 µM
